Experimental data reported in US11000033B2, “Ketone or oxime compound, and herbicide” (NISSAN CHEMICAL CORPORATION, priority 2014, dated 2021).

Legend:
Format in all cases: in vivo
Scirpus juncoides = assay: Test Example 1: herbicidal activity, application before weed generation in submerged conditions (symbol B)
Method in brief: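 Flooded alluvial soil (4 cm water) was mixed-sown with the three weed species, and 2.5-leaf rice seedlings were transplanted. On sowing day, a water-diluted emulsion at a predetermined rate was applied to the water surface. After 3 weeks in a 25–30 °C greenhouse, effect was scored 0–5.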

[1] = test system: directly sowed rice plant; assay: Test Example 3: effect on crop by foliage application, Wagner pot (symbol b)
Method in brief: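 Wagner pot (1/10000 are), alluvial soil, submerged 0.1–0.5 cm; sown E. crus-galli var. crus-galli, L. chinensis, C. difformis, rice; greenhouse 25–30 °C.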

Digitaria ciliaris [2] = assay: Test Example 4: herbicidal effect by soil treatment (symbol F)
Excerpt: (§1) Herbicidal Effect Test by Soil Treatment
(§2) Sterilized diluvial soil was placed in a plastic box having a length of 21 cm, a width of 13 cm, and a depth of 7 cm. Each of the seeds of Digitaria ciliaris, Setaria viridis, Echinochloa crus-galli var. crus-galli, Avena fatua, Alopecurus myosuroides, Lolium multiflorum Lam., Apera spica-venti, Abutilon theophrasti, Amaranthus retroflexus, Chenopodium album, Stellaria media, Galium spurium, Veronica persica, corn, soybean, rice, wheat, beet, and rapeseed was sowed in a spot-like manner and was covered with the soil of a thickness of about 1.5 cm. Subsequently, the emulsion agent of the compound present invention prepared in accordance with Formulation Example 2 was diluted with water so as to be a predetermined herbicide amount and the diluted emulsion agent was uniformly applied to the surface of the soil with a small-size spray. The plastic box was placed in a greenhouse of 25° C. to 30° C. to grow plant. 3 weeks later from the herbicide application, the effect to each plant was investigated in accordance with the criteria of Test Example 1.

[3] = test system: Echinochloa crus-galli var. crus-galli; assay: Test Example 4: herbicidal effect by soil treatment (symbol H)
Excerpt: as §1, §2

Avena fatua [4] = assay: Test Example 4: herbicidal effect by soil treatment (symbol I)
Excerpt: as §1, §2

Lolium multiflorum Lam. = assay: Test Example 4: herbicidal effect by soil treatment (symbol K)
Excerpt: as §1, §2

rice = assay: Test Example 4: effect on crop by soil treatment (symbol b)
Excerpt: as §1
(§3) Sterilized diluvial soil was placed in a plastic box having a length of 21 cm, a width of 13 cm, and a depth of 7 cm. Each of the seeds of Digitaria ciliaris, Setaria viridis, Echinochloa crus-galli var. crus-galli, Avena fatua, Alopecurus myosuroides, Lolium multiflorum Lam., Apera spica-venti, Abutilon theophrasti, Amaranthus retroflexus, Chenopodium album, Stellaria media, Galium spurium, Veronica persica, corn, soybean, rice, wheat, beet, and rapeseed was sowed in a spot-like manner and was covered with the soil of a thickness of about 1.5 cm. […] The plastic box was placed in a greenhouse of 25° C. to 30° C. to grow plant.

rapeseed [5] = assay: Test Example 4: effect on crop by soil treatment (symbol g)
Excerpt: as §1, §3

Digitaria ciliaris [6] = assay: Test Example 5: herbicidal effect by foliage application, plastic box (symbol F); settings: 3 weeks after application
Method in brief: (§4)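 Visual herbicidal score, taken three weeks post-application, of seedlings sprayed on the foliage with water-diluted emulsion at a predetermined amount; plants were 14 days old, greenhouse-raised at 25° C. to 30° C.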

Avena fatua [7] = assay: Test Example 5: herbicidal effect by foliage application, plastic box (symbol I); settings: 3 weeks after application
Method in brief: as §4

Chenopodium album = assay: Test Example 5: herbicidal effect by foliage application, plastic box (symbol O); settings: 3 weeks after application
Method in brief: as §4

Stellaria media = assay: Test Example 5: herbicidal effect by foliage application, plastic box (symbol P); settings: 3 weeks after application
Method in brief: as §4

Veronica persica = assay: Test Example 5: herbicidal effect by foliage application, plastic box (symbol R); settings: 3 weeks after application
Method in brief: as §4

corn = assay: Test Example 5: effect on crop by foliage application, plastic box (symbol c); settings: 3 weeks after application
Method in brief: (§5)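 Crop and weed seeds sown in spots in sterilized diluvial soil in plastic boxes and covered with about 1.5 cm soil. Plants raised in a greenhouse at 25° C. to 30° C. for foliar application.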

wheat = assay: Test Example 5: effect on crop by foliage application, plastic box (symbol e); settings: 3 weeks after application
Method in brief: as §5

rapeseed [8] = assay: Test Example 5: effect on crop by foliage application, plastic box (symbol g); settings: 3 weeks after application
Method in brief: as §5

[9] = application herbicide amount 269 g/ha
[10] = application herbicide amount 192 g/ha
[11] = application herbicide amount 320 g/ha

Compound: CC(=O)C(C)C1CC(O)=C(c2c(C)cc(C)cc2C)C1=O (stereo not drawn) [2-005]
- Herbicidal effect grade, B: Scirpus juncoides (Scirpus juncoides; [9]): 0 (Herbicidal ratio of 5% or lower (almost no effect))
- effect on crop b (directly sowed rice plant), grade 0-5 [1, 9]: 5 (Herbicidal ratio of 90% or more (almost completely withered))
- F: Digitaria ciliaris, herbicidal effect grade (Digitaria ciliaris [2]; [9]): 5 (Herbicidal ratio of 90% or more (almost completely withered))
- H: Echinochloa crus-galli var. crus-galli, herbicidal effect grade [3, 9]: 5 (Herbicidal ratio of 90% or more (almost completely withered))
- I: Avena fatua, herbicidal effect grade (Avena fatua [4]; [9]): 0 (Herbicidal ratio of 5% or lower (almost no effect))
- K: Lolium multiflorum Lam., herbicidal effect grade (Lolium multiflorum Lam.; [9]): 5 (Herbicidal ratio of 90% or more (almost completely withered))
- b: directly sowed rice plant, effect on crop grade (rice; [9]): 5 (Herbicidal ratio of 90% or more (almost completely withered))
- g: rapeseed, effect on crop grade (rapeseed [5]; [9]): 4 (Herbicidal ratio of 70% or higher and lower than 90%)
- F: Digitaria ciliaris, herbicidal effect grade (Digitaria ciliaris [6]; 269 g/ha): 3 (Herbicidal ratio of 40% or higher and lower than 70%)
- I: Avena fatua, herbicidal effect grade (Avena fatua [7]; 269 g/ha): 3 (Herbicidal ratio of 40% or higher and lower than 70%)
- O: Chenopodium album, herbicidal effect grade (Chenopodium album; 269 g/ha): 0 (Herbicidal ratio of 5% or lower (almost no effect))
- P: Stellaria media, herbicidal effect grade (Stellaria media; 269 g/ha): 0 (Herbicidal ratio of 5% or lower (almost no effect))
- R: Veronica persica, herbicidal effect grade (Veronica persica; 269 g/ha): 0 (Herbicidal ratio of 5% or lower (almost no effect))
- c: corn, effect on crop grade (corn; 269 g/ha): 3 (Herbicidal ratio of 40% or higher and lower than 70%)
- e: wheat, effect on crop grade (wheat; 269 g/ha): 0 (Herbicidal ratio of 5% or lower (almost no effect))
- g: rapeseed, effect on crop grade (rapeseed [8]; 269 g/ha): 4 (Herbicidal ratio of 70% or higher and lower than 90%)

Compound: CON=C(C)CC1CC(OC(=O)C2CCCO2)=C(c2c(C)cc(C)cc2C)C1=O (stereo not drawn) [1-076]
- Herbicidal effect grade, B: Scirpus juncoides (Scirpus juncoides; [10]): 4 (Herbicidal ratio of 70% or higher and lower than 90%)
- effect on crop b (directly sowed rice plant), grade 0-5 [1, 10]: 5 (Herbicidal ratio of 90% or more (almost completely withered))
- F: Digitaria ciliaris, herbicidal effect grade (Digitaria ciliaris [2]; 192 g/ha): 5 (Herbicidal ratio of 90% or more (almost completely withered))
- H: Echinochloa crus-galli var. crus-galli, herbicidal effect grade ([3]; 192 g/ha): 5 (Herbicidal ratio of 90% or more (almost completely withered))
- I: Avena fatua, herbicidal effect grade (Avena fatua [4]; 192 g/ha): 4 (Herbicidal ratio of 70% or higher and lower than 90%)
- K: Lolium multiflorum Lam., herbicidal effect grade (Lolium multiflorum Lam.; 192 g/ha): 5 (Herbicidal ratio of 90% or more (almost completely withered))
- b: directly sowed rice plant, effect grade on crop (rice; 192 g/ha): 5 (Herbicidal ratio of 90% or more (almost completely withered))
- g: rapeseed, effect grade on crop (rapeseed [5]; 192 g/ha): 4 (Herbicidal ratio of 70% or higher and lower than 90%)
- F: Digitaria ciliaris, herbicidal effect (criteria 0-5) (Digitaria ciliaris [6]; 192 g/ha): 5 (Herbicidal ratio of 90% or more (almost completely withered))
- I: Avena fatua, herbicidal effect (criteria 0-5) (Avena fatua [7]; 192 g/ha): 5 (Herbicidal ratio of 90% or more (almost completely withered))
- P: Stellaria media, herbicidal effect (criteria 0-5) (Stellaria media; 192 g/ha): 3 (Herbicidal ratio of 40% or higher and lower than 70%)
- R: Veronica persica, herbicidal effect (criteria 0-5) (Veronica persica; 192 g/ha): 3 (Herbicidal ratio of 40% or higher and lower than 70%)
- c: corn, effect on crop (criteria 0-5) (corn; 192 g/ha): 4 (Herbicidal ratio of 70% or higher and lower than 90%)
- e: wheat, effect on crop (criteria 0-5) (wheat; 192 g/ha): 5 (Herbicidal ratio of 90% or more (almost completely withered))
- g: rapeseed, effect on crop (criteria 0-5) (rapeseed [8]; 192 g/ha): 4 (Herbicidal ratio of 70% or higher and lower than 90%)

Compound: CON=C(C)CC1CC(OC(=O)c2cc(C)on2)=C(c2c(C)cc(C)cc2C)C1=O (stereo not drawn) [1-100]
- Herbicidal effect grade, B: Scirpus juncoides (Scirpus juncoides; [11]): 5 (Herbicidal ratio of 90% or more (almost completely withered))
- effect on crop b (directly sowed rice plant), grade 0-5 [1, 11]: 5 (Herbicidal ratio of 90% or more (almost completely withered))
- F: Digitaria ciliaris, herbicidal effect grade (Digitaria ciliaris [2]; 320 g/ha): 5 (Herbicidal ratio of 90% or more (almost completely withered))
- H: Echinochloa crus-galli var. crus-galli, herbicidal effect grade ([3]; 320 g/ha): 5 (Herbicidal ratio of 90% or more (almost completely withered))
- I: Avena fatua, herbicidal effect grade (Avena fatua [4]; 320 g/ha): 3 (Herbicidal ratio of 40% or higher and lower than 70%)
- K: Lolium multiflorum Lam., herbicidal effect grade (Lolium multiflorum Lam.; 320 g/ha): 5 (Herbicidal ratio of 90% or more (almost completely withered))
- b: directly sowed rice plant, effect grade on crop (rice; 320 g/ha): 5 (Herbicidal ratio of 90% or more (almost completely withered))
- g: rapeseed, effect grade on crop (rapeseed [5]; 320 g/ha): 3 (Herbicidal ratio of 40% or higher and lower than 70%)
- F: Digitaria ciliaris, herbicidal effect (criteria 0-5) (Digitaria ciliaris [6]; 320 g/ha): 5 (Herbicidal ratio of 90% or more (almost completely withered))
- I: Avena fatua, herbicidal effect (criteria 0-5) (Avena fatua [7]; 320 g/ha): 5 (Herbicidal ratio of 90% or more (almost completely withered))
- O: Chenopodium album, herbicidal effect (criteria 0-5) (Chenopodium album; 320 g/ha): 1 (Herbicidal ratio of 5% or higher and lower than 20%)
- P: Stellaria media, herbicidal effect (criteria 0-5) (Stellaria media; 320 g/ha): 0 (Herbicidal ratio of 5% or lower (almost no effect))
- R: Veronica persica, herbicidal effect (criteria 0-5) (Veronica persica; 320 g/ha): 3 (Herbicidal ratio of 40% or higher and lower than 70%)
- c: corn, effect on crop (criteria 0-5) (corn; 320 g/ha): 5 (Herbicidal ratio of 90% or more (almost completely withered))
- e: wheat, effect on crop (criteria 0-5) (wheat; 320 g/ha): 5 (Herbicidal ratio of 90% or more (almost completely withered))
- g: rapeseed, effect on crop (criteria 0-5) (rapeseed [8]; 320 g/ha): 5 (Herbicidal ratio of 90% or more (almost completely withered))

Compound: COCCON=C(C)CC1CC(O)=C(c2c(C)cc(Br)cc2C)C1=O (stereo not drawn) [9-017]
- B (Scirpus juncoides) herbicidal effect grade (Scirpus juncoides; [11]): 2 (Herbicidal ratio of 20% or higher and lower than 40%)
- b (directly sowed rice plant) effect on crop grade ([1]; application herbicide amount 320 g/ha, Table 24): 5 (Herbicidal ratio of 90% or more (almost completely withered))
- Herbicidal effect grade, F: Digitaria ciliaris (Digitaria ciliaris [2]; [11]): 4 (Herbicidal ratio of 70% or higher and lower than 90%)
- Herbicidal effect grade, H: Echinochloa crus-galli var. crus-galli [3, 11]: 0 (Herbicidal ratio of 5% or lower (almost no effect))
- Herbicidal effect grade, I: Avena fatua (Avena fatua [4]; [11]): 0 (Herbicidal ratio of 5% or lower (almost no effect))
- Herbicidal effect grade, K: Lolium multiflorum Lam. (Lolium multiflorum Lam.; [11]): 0 (Herbicidal ratio of 5% or lower (almost no effect))
- Effect on crop grade, b: directly sowed rice plant (rice; [11]): 1 (Herbicidal ratio of 5% or higher and lower than 20%)
- Effect on crop grade, g: rapeseed (rapeseed [5]; [11]): 0 (Herbicidal ratio of 5% or lower (almost no effect))
- F: Digitaria ciliaris, herbicidal effect grade (Digitaria ciliaris [6]; 320 g/ha): 4 (Herbicidal ratio of 70% or higher and lower than 90%)
- I: Avena fatua, herbicidal effect grade (Avena fatua [7]; 320 g/ha): 4 (Herbicidal ratio of 70% or higher and lower than 90%)
- O: Chenopodium album, herbicidal effect grade (Chenopodium album; 320 g/ha): 0 (Herbicidal ratio of 5% or lower (almost no effect))
- P: Stellaria media, herbicidal effect grade (Stellaria media; 320 g/ha): 0 (Herbicidal ratio of 5% or lower (almost no effect))
- R: Veronica persica, herbicidal effect grade (Veronica persica; 320 g/ha): 0 (Herbicidal ratio of 5% or lower (almost no effect))
- c: corn, effect on crop grade (corn; 320 g/ha): 5 (Herbicidal ratio of 90% or more (almost completely withered))
- e: wheat, effect on crop grade (wheat; 320 g/ha): 3 (Herbicidal ratio of 40% or higher and lower than 70%)
- g: rapeseed, effect on crop grade (rapeseed [8]; 320 g/ha): 3 (Herbicidal ratio of 40% or higher and lower than 70%)
